11 compounds from ChEMBL document CHEMBL1201862, “PubChem BioAssay data set” (2004) can be followed below.

Some test systems named below: Malme-3M; EKVX; SW-620; 786-0; RPMI-8226; HT-29; UO-31; ACHN; HCT-116; NCI/ADR-RES; SNB-19; SK-MEL-2; OVCAR-5; CAKI-1; A498; SK-MEL-5; NCI-H522; LOX IMVI; SK-OV-3; RXF 393.
Holding throughout (assay): NCI anticancer screen, dose series, 48 h

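Step 1: Grow cells in 96-well plates. Step 2: Expose to compound for 48 hours at 5 concentrations. Step 3: Interpolate endpoints linearly; if unreached, use highest concentration. At the GI50, growth is halved.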 Active and inactive are the calls of the source. No stated cut-off is given here; in the data, active = GI50 up to about 1.1 µM and inactive = higher.

For `CC(C)(C)OC(=O)N1CCC(C(=O)O)CC1`, the GI50 in the assay on Malme-3M, in the assay with EKVX, in the assay with SW-620, with 786-0, in the assay on RPMI-8226 and in the assay with HT-29 was > 100 µM (inactive) each time. Also, the GI50 in the assay with UO-31, with ACHN, in the assay on HCT-116, in the assay on NCI/ADR-RES, in the assay with SNB-19 and in the assay with SK-MEL-2 was > 100 µM (inactive) in each case. Also, the GI50 in the assay with OVCAR-5, in the assay with CAKI-1, in the assay with A498, in the assay with SK-MEL-5, in the assay with NCI-H522 and in the assay on LOX IMVI was > 100 µM (inactive) in each case.

For the compound `c1ccc(N/N=N/c2ccc(-c3nc4ccccc4o3)cc2)nc1`, the GI50 was > 100 µM (inactive) with Malme-3M; 29.9 µM (inactive) in the assay on EKVX; 19.3 µM (inactive) in the assay with SW-620; 91.8 µM (inactive) with 786-0; 42.8 µM (inactive) in the assay on HT-29; 26.6 µM (inactive) in the assay on UO-31. For the same compound, the GI50 in the assay with ACHN was 52.2 µM (inactive); in the assay with HCT-116 it was 39.8 µM (inactive); with NCI/ADR-RES it was 35.4 µM (inactive); with SNB-19, 75.2 µM (inactive); with SK-MEL-2 it was 41.1 µM (inactive); with OVCAR-5 it was > 100 µM (inactive). Besides, the GI50 in the assay on SK-OV-3 was 35.4 µM (inactive); in the assay with A498 it was 46.3 µM (inactive); in the assay with SK-MEL-5, 16.2 µM (inactive); with NCI-H522, 43 µM (inactive); with LOX IMVI, 37.2 µM (inactive).

In the case of `CCOC(=O)CSc1nc2ccccc2c(=O)n1N`, the GI50 in the assay on RXF 393, in the assay with Malme-3M, in the assay with EKVX, in the assay with SW-620, in the assay with 786-0 and in the assay on RPMI-8226 was > 100 µM (inactive) each time. In addition, the GI50 is 68.4 µM (inactive) in the assay with HT-29; > 100 µM (inactive) with UO-31; > 100 µM (inactive) with ACHN; > 100 µM (inactive) with HCT-116; > 100 µM (inactive) in the assay with NCI/ADR-RES; > 100 µM (inactive) in the assay with SNB-19. In addition, the GI50 with SK-MEL-2, in the assay with OVCAR-5, in the assay with CAKI-1, in the assay with A498, with SK-MEL-5 and with NCI-H522 was > 100 µM (inactive) each time. Further, the GI50 in the assay with LOX IMVI was > 100 µM (inactive).

As for `COc1ccc(-n2cnc3c(NC(C)(C)C(=O)O)ncnc32)cc1`, the GI50 in the assay on EKVX was 84.9 µM (inactive); in the assay on SW-620, > 100 µM (inactive); in the assay with 786-0, > 100 µM (inactive); in the assay on RPMI-8226, > 100 µM (inactive); with HT-29 it was > 100 µM (inactive); in the assay on UO-31, > 100 µM (inactive). The GI50 with ACHN, in the assay on HCT-116, in the assay on NCI/ADR-RES, in the assay on SNB-19, in the assay with SK-MEL-2 and in the assay on OVCAR-5 was > 100 µM (inactive) each time. Moreover, the GI50 with SK-OV-3, in the assay with CAKI-1, in the assay on A498, in the assay on SK-MEL-5 and in the assay with LOX IMVI was > 100 µM (inactive) throughout.

Regarding `CCOC(=O)c1ccc(N(C)Cc2cnc3nc(N)nc(N)c3n2)cc1`, the GI50 in the assay with RXF 393 is 5.97 µM (inactive); in the assay with Malme-3M it was 16.6 µM (inactive); with EKVX, 24.6 µM (inactive); with SW-620 it was 6.3 µM (inactive); in the assay with 786-0, 7.45 µM (inactive); with RPMI-8226, 74 µM (inactive). Besides, the GI50 with HT-29 is 7.98 µM (inactive); in the assay with UO-31 it was 14.2 µM (inactive); in the assay on ACHN it was 5.05 µM (inactive); in the assay with HCT-116, 3.66 µM (inactive); in the assay with NCI/ADR-RES it was 7.8 µM (inactive); in the assay on SNB-19 it was 11.6 µM (inactive). The GI50 is 21.4 µM (inactive) in the assay with SK-MEL-2; 17.4 µM (inactive) in the assay on OVCAR-5; 18.5 µM (inactive) with SK-OV-3; 14.4 µM (inactive) in the assay on CAKI-1; 13.1 µM (inactive) in the assay on A498; 6.1 µM (inactive) in the assay with SK-MEL-5. In addition, in the assay on LOX IMVI, the GI50 was 5.5 µM (inactive).

For the compound `O=C(CCc1ccccc1)On1c(-c2ccccc2)nc2ccccc2c1=S`, the GI50 with RXF 393 is 18.6 µM (inactive); in the assay with Malme-3M it was 3.61 µM (inactive); in the assay with EKVX, 6.78 µM (inactive); in the assay on SW-620 it was 8.26 µM (inactive); in the assay with 786-0, 2.06 µM (inactive); with RPMI-8226 it was 7.28 µM (inactive). The GI50 in the assay on HT-29 is 3.85 µM (inactive); in the assay with UO-31, 3.66 µM (inactive); in the assay on ACHN, 5.69 µM (inactive); with HCT-116 it was 2.01 µM (inactive); in the assay with NCI/ADR-RES, 4.08 µM (inactive); with SNB-19, 14.8 µM (inactive). For the same compound, the GI50 with SK-MEL-2 was 8.81 µM (inactive); in the assay with OVCAR-5 it was 18.9 µM (inactive); in the assay with SK-OV-3 it was 6.84 µM (inactive); in the assay on CAKI-1 it was 5.68 µM (inactive); with A498 it was 65.8 µM (inactive); in the assay on SK-MEL-5 it was 4.47 µM (inactive). For the same compound, the GI50 with LOX IMVI was 0.456 µM (active).

As for `Cn1ccnc1S/C(=C\C=C(C#N)C#N)c1ccc(Cl)cc1`, the GI50 in the assay on RXF 393 is 1.84 µM (inactive); in the assay with Malme-3M it was 1.04 µM (active); in the assay on EKVX it was 7.89 µM (inactive); in the assay with SW-620 it was 0.303 µM (active); in the assay on 786-0 it was 1.33 µM (inactive); in the assay with HT-29, 1.67 µM (inactive). In addition, the GI50 with UO-31 is 2.64 µM (inactive); in the assay on ACHN it was 0.693 µM (active); with HCT-116, 0.324 µM (active); with NCI/ADR-RES, 2.22 µM (inactive); in the assay with SNB-19, 3.48 µM (inactive); in the assay on OVCAR-5, 2.31 µM (inactive). For the same compound, the GI50 is 8.07 µM (inactive) with SK-OV-3; 1.69 µM (inactive) with CAKI-1; 1.27 µM (inactive) with A498; 1.13 µM (inactive) with SK-MEL-5; 2.45 µM (inactive) with NCI-H522.

With `COc1ccc(C2N(c3ccc(C)c(N=C=O)c3)C(=O)N3C(c4ccc(OC)cc4)N(c4ccc(C)c(N=C=O)c4)C(=O)N23)cc1` (stereo not given), the GI50 in the assay with RXF 393 is > 100 µM (inactive); in the assay with Malme-3M, 25.8 µM (inactive); with EKVX, > 100 µM (inactive); in the assay on SW-620, > 100 µM (inactive); in the assay with 786-0, > 100 µM (inactive); in the assay on RPMI-8226 it was > 100 µM (inactive). For the same compound, the GI50 in the assay on HT-29, with UO-31, in the assay with ACHN, in the assay on HCT-116, in the assay on NCI/ADR-RES and in the assay with SNB-19 was > 100 µM (inactive) each time. The GI50 is 49.7 µM (inactive) with SK-MEL-2; > 100 µM (inactive) in the assay with OVCAR-5; > 100 µM (inactive) with CAKI-1; 44 µM (inactive) with A498; > 100 µM (inactive) with SK-MEL-5; > 100 µM (inactive) in the assay on LOX IMVI.

`COc1ccc(/N=N/C(=O)NC(CC(C)C)C(=O)NC(Cc2ccccc2)C(=O)O)cc1` (stereo not given): the GI50 in the assay on RXF 393 is > 100 µM (inactive); with Malme-3M, 7.55 µM (inactive); in the assay on EKVX, 40.3 µM (inactive); in the assay on SW-620, 7.73 µM (inactive); in the assay on 786-0, > 100 µM (inactive); in the assay with RPMI-8226, 2.28 µM (inactive). For the same compound, the GI50 in the assay with HT-29 is > 100 µM (inactive); with UO-31 it was 3.37 µM (inactive); with ACHN, 0.347 µM (active); in the assay with HCT-116, 32.4 µM (inactive); in the assay on NCI/ADR-RES, > 100 µM (inactive); in the assay on SNB-19 it was 72.9 µM (inactive). Also, the GI50 with OVCAR-5 is 1.88 µM (inactive); with CAKI-1, > 100 µM (inactive); with A498 it was > 100 µM (inactive); with SK-MEL-5, 2.61 µM (inactive); with NCI-H522, 6.24 µM (inactive); in the assay on LOX IMVI it was 18.2 µM (inactive).

Consider `CCCC(=O)N/S(=N/S(=O)(=O)c1ccc(Cl)cc1)C(Cl)(Cl)Cl` (stereo not given), for which the GI50 with RXF 393, in the assay with Malme-3M, with EKVX, in the assay on SW-620, in the assay on 786-0 and with HT-29 was > 100 µM (inactive) each time. Also, the GI50 is > 100 µM (inactive) in the assay on UO-31; > 100 µM (inactive) with ACHN; > 100 µM (inactive) with HCT-116; > 100 µM (inactive) with NCI/ADR-RES; > 100 µM (inactive) with SNB-19; 16.5 µM (inactive) in the assay with SK-MEL-2. For the same compound, the GI50 in the assay with OVCAR-5, in the assay on SK-OV-3, in the assay on A498 and with SK-MEL-5 was > 100 µM (inactive) in each case.

Take `NC1CC(N)c2c(Br)sc(Br)c21` (stereo not given): the GI50 with Malme-3M is > 100 µM (inactive); in the assay on EKVX, > 100 µM (inactive); in the assay on SW-620, 62.2 µM (inactive); in the assay on 786-0, 95.3 µM (inactive); with HT-29 it was > 100 µM (inactive); in the assay on UO-31 it was 41.4 µM (inactive). In addition, the GI50 in the assay with ACHN is > 100 µM (inactive); in the assay on HCT-116, 87.9 µM (inactive); with NCI/ADR-RES, > 100 µM (inactive); with SK-MEL-2 it was > 100 µM (inactive); in the assay on OVCAR-5, > 100 µM (inactive); with SK-OV-3 it was > 100 µM (inactive). Also, the GI50 in the assay with CAKI-1 is > 100 µM (inactive); in the assay on A498, > 100 µM (inactive); with SK-MEL-5, > 100 µM (inactive); in the assay with NCI-H522 it was 44.1 µM (inactive); in the assay with LOX IMVI, 58.1 µM (inactive).
